“Also recorded” adds a separate entry of the source.
Tests used:
[1] = system: astrocytes (SGLT2 activated by glucose); experiment: Astrocyte cell volume in ex vivo MCAo/R brain slices after glycemic challenge; format: cell-based, mouse; details: ipsilateral brain slices, MCAo/R 2/6 hours; step change 2 to 10 mM glucose; 5 μM
[2] = system: C57BL/6 mice, MCAo and reperfusion; experiment: 2-hour MCAo followed by 24 hours reperfusion, infarct volume and reperfusion edema (Example 2); format: in vivo, mouse; details: 0.07 mg/kg IV at reperfusion
Experimental: A,B: Edema, measured as percent hemispheric swelling, vs. TTC infarct volume following 2 hour MCAo and 24 hour reperfusion; data are shown for C57BL/6 mice treated upon reperfusion with vehicle (empty circles) vs. the SGLT2 inhibitor, canagliflozin (filled squares; 0.07 mg/kg IV). Note the significant downward shift in the regression line, signifying reduced coupling between reperfusion edema and infarct volume.
The known variability in the brain damage caused by ischemia in C57BL/6 mice was leveraged (Knauss, et al., Frontiers in Neuroscience 2020) to quantify the relationship between reperfusion edema and infarct volume, under both control conditions and with SGLT2 inhibition. Mice underwent 2-hour MCAo followed by 24 hours reperfusion. At 2 hours, at the time of reperfusion, mice were randomly assigned to receive either vehicle control or canagliflozin (0.07 mg/kg IV). At 24 hours, the brains were evaluated for infarct volume using 2,3,5-triphenyltetrazolium chloride (TTC) (Khan, et al., Evaluation of an optimal temperature for brain storage in delayed 2, 3,5-triphenyltetrazolium chloride staining, J. Neurosci. Methods 2000, 98:43-47), and the hemisphere volume was quantified as a measure of reperfusion edema. McBride, et al., Correcting for Brain Swelling's Effects on Infarct Volume Calculation After Middle Cerebral Artery Occlusion in Rats, Transl. Stroke Res. 2015, 6:323-338. […]

C57BL6 mice, MCAo/R = experiment: MCAo/R (2/24 hours): infarct volume, hemispheric swelling, brain water, Garcia score (Example 4); format: in vivo, mouse
[3] = Blood glucose at reperfusion and at euthanasia by glucometer (Example 4); format: in vivo, mouse; details: non-diabetic mice; 200 μg/kg IV; 5-7 mice/group
[4] = Serum glucose before and after canagliflozin administration (Example 3); format: in vivo, mouse; details: 0.07 mg/kg IV; compared to baseline / vehicle; 5 mice/group
Experimental: Drugs of the gliflozin class are used in patients with diabetes mellitus to lower serum glucose. To control for the possibility that the effect of canagliflozin was mediated by a reduction in serum glucose, we measured serum glucose at various times before and after canagliflozin (0.07 mg/kg IV) administration.

[5] = system: rat model with type 1 diabetes mellitus and bilateral ischemia; details: 30-minute bilateral ischemia; cited from earlier work
[6] = system: patients with or without T2DM; details: long-term use, regardless of T2DM; cited from earlier work
[7] = 200 μg/kg IV at reperfusion, mean ± S.E.

Row | Structure (SMILES) | glucose-induced changes in astrocyte volume [1] | infarct volume (TTC) [2] | reperfusion edema (percent hemispheric swelling) relative to infarct volume ([2]; shift in Deming regression p<0.0001) | neurological function, Garcia score (median) (C57BL6 mice, MCAo/R; 200 μg/kg IV) | hemispheric swelling (C57BL6 mice, MCAo/R; [7]) | infarct volume (C57BL6 mice, MCAo/R; [7]) | maximum hemispheric swelling (YM) from exponential fit (C57BL6 mice, MCAo/R; 200 μg/kg IV, fit to Eq. 1) | ipsilateral brain water (C57BL6 mice, MCAo/R; 200 μg/kg IV, wet weight/dry weight method) | blood glucose at 24 hours [3] | blood glucose at reperfusion [3] | serum glucose [4] | blood glucose [5] | infarct volume [5] | progression of kidney disease [6] | risk of death from cardiovascular disease [6]
1 | Cc1ccc([C@@H]2O[C@H](CO)[C@@H](O)[C@H](O)[C@H]2O)cc1Cc1ccc(-c2ccc(F)cc2)s1 [canagliflozin] | completely blocked | 63.1±8.0 % of hemisphere | reduced at all infarct volumes | 8 | 15.7±1.0% | 87.7±6.7 mm^3 | 17.9% | 82.3±0.4 | 146 ± 10 mg/dL | 175 ± 10 mg/dL | remained euglycemic; also recorded: not affected | – | – | – | –
2 | OC[C@H]1O[C@@H](c2ccc(Cl)c(Cc3ccc(O[C@H]4CCOC4)cc3)c2)[C@H](O)[C@@H](O)[C@@H]1O [empagliflozin] | – | – | – | – | – | – | – | – | – | – | – | reduced blood glucose | reduced blood glucose as well as infarct volume | slows the progression of kidney disease | reduces the risk of death from cardiovascular disease

Reference: patent US20250205317A1, “METHODS AND COMPOSITIONS FOR THE TREATMENT OF STROKE” (University of Maryland, Baltimore, priority 2022, published 2025)
